# Experimental data as given in patent publication US11993513B2, “Process for manufacturing an aqueous hydrogen peroxide solution” (SOLVAY SA, priority 2018, dated 2024).
# Experiments:
# Type in all cases: physicochemical
# [1] = Density of polar solvents; conditions: ambient temperature
# [2] = Solubility tests of hydrogenated quinones (QH) in solvent mixtures, synthetic EQ/ETQ working solutions; conditions: comparison in words
# Method: The determination of the QH solubility was performed on synthetic EQ/ETQ working solutions. These quinones mixed in the tested solvents have been hydrogenated to a fixed level and cooled down successively to 3 different temperatures before the measurement (min. 3 hours to stabilize the system between each measurement). The conditions applied for these tests were:
# In this figure, Kb stands for the weight partition coefficient of hydrogen peroxide between the water and the working solution (mixture of quinones and organic solvents). It is calculated using the following formula: Kb=(g H2O2/kg aqueous phase)/(g H2O2/kg organic phase)
# The maximum solubility of a hydrogenated quinone (QH) in a solvent mixture is directly correlated with the productivity of the working solution. The higher is the QH solubility, the higher will be the theoretical quantity of hydrogen peroxide achievable per kg of WS (Productivity). These theoretical values, designated by the terms “Productivity (gH2O2/kg of WS) measured” in Table 1, were calculated as follows: […]
# 1 mole (240 g) ETQH (which actually is the QH in our Examples) per kg of WS will produce 1 mole (34 g) of H2O2 per kg of WS.
# [3] = Stability of the nitrile solvent during the AO process; conditions: nitrile function not protected
# From the text: As explained above, the main feature of the invention is the recourse to a mixture of a polar organic solvent and a non-polar organic solvent wherein the polar organic solvent is a substituted cyclohexane carbonitrile. […] The substituent(s) are preferably alkyl groups, preferably methyl and/or ethyl group(s). […] Another alternative would be to use at least one propyl, diethyl, methyl isopropyl, butyl, t-butyle . . . the latter being preferred.
Compound,Density of polar solvents at amb T° [1] [kg/L],Productivity values compared with sextate or a linear nitrile like decanenitrile [2],Stability of the molecule during the AO process [3]
CCCCCCCCCC#N [Decanenitrile],0.83,–,–
"CC1CCCC(C)(C)C1C#N (centres unmarked) [TMCH-CN, 2,2,6-trimethyl-cyclohexane-carbonitrile]",0.89,much higher (almost the double in fact),–
"N#CC1CCCCC1 [Unsubstituted cyclohexane carbonitrile, cyclohexane carbonitrile]",–,–,undergoes degradation
methyl cyclohexyl acetate [Sextate],0.94,–,–
